Source: US12325692B2, “Uses of doxadiazines compounds” (HORITZONTS TECNOLOGICS HUNGARY KORLÁTOLT FELELOSSÉGU …, priority 2019, dated 2025)

Key:
THP-1 cells [1] = assay: Cytotoxic activity assay in THP-1 cells; format: cell-based; conditions: 48 h, at the tested concentrations
Method: FIG. 1. Cytotoxic activities of the compound in THP-1 cells. The cells were treated with the test substance at the indicated concentrations for 48 h.
Cytotoxic activity assays. THP-1 cell was seeded in 96-well plates at a density of 5×10^4 cells/well and NIH/3T3 cells were seeded in 96-well plates at a density of 5×10^3 cells/well both incubated overnight at 37° C. in a humidified atmosphere of 5% CO2. Subsequently, cells were treated with test compounds at the indicated concentrations and DMSO as control for […]. The test compounds were dissolved in DMSO (stock solution) and diluted with medium to a final DMSO concentration of 0.2%. MTT solution (50 μL, 7 mg/mL in PBS) was added to each well and plates were incubated for an additional 2 h. Next, the medium was removed and 100 μL of DMSO was added to each well to dissolve the formazan crystals that formed. The absorbance was measured at 590 nm using a spectrophotometric ELISA plate reader (SpectraMax® i3, Molecular Devices, CA, USA). Samples were considered nontoxic for the THP-1 and NIH/3T3 cell line when cell viability was ≥90%.
To analyse the cytotoxic activities of the test compound, THP-1 cells were incubated with DOXA-1 and DOXA-2 for 48 h and cytotoxicity was measured by fluorescence microscopy using an Incuyte microscope.

THP-1 cells [2] = assay: Cellular antioxidant activity assay (TBHP-induced ROS, DCFH-DA) in THP-1 cells; format: cell-based; conditions: Homo sapiens, THP-1 cell, 0.4 mM TBHP, read-out: antioxidant activity IC50 (TBHP-induced intracellular ROS)
Method: (§1) FIG. 3. Inhibition of TBHP-induced ROS production in THP-1 and NIH-3T3 cells. ROS production was evaluated by fluorescent probe DCFH-DA assay.
(§2) Cellular antioxidant activity assays. The intracellular accumulation of ROS is detected by fluorimetry using […] (DCFH-DA). The THP-1 cell (1×10^5 cells/well) are cultured in a 96-well black plate in DMEM supplemented with 10% FBS; culture medium is renewed when the cells reached 80% confluence. For inhibition, the cells are pre-incubated with the test substances for 30 min and treated with 0.4 mM Terc-butyl-hydroperoxide (TBHP). After 3 h the cells are incubated with 10 μM DCFH-DA in the culture medium at 37° C. for 30 min.
(§3) The acetate groups on DCFH-DA are removed by an intracellular esterase, trapping the probe inside the THP-1 cell. Then, the cells are washed with PBS at 37° C. and the production of ROS measured by changes in fluorescence due to the intracellular accumulation of DCF caused by the oxidation of DCFH. Intracellular ROS, as indicated by DCF fluorescence is detected using the Incucyte FLR software; the data are analyzed by the total green object integrated intensity (GCU×μm^2×well) of the imaging system IncuCyte HD (Essen BioScience).
(§4) In both cases the intracellular levels of ROS induced by TBHP are reduced (FIG. 3).

NIH/3T3 cells = assay: Cellular antioxidant activity assay (TBHP-induced ROS, DCFH-DA) in NIH/3T3 cells; format: cell-based; conditions: Mus musculus, NIH3T3, NIH/3T3 cell, read-out: antioxidant activity IC50 (TBHP-induced intracellular ROS)
Method: as §1, §2, §3, §4

TNF-α [3] = assay: TNF-α activity assay (ELISA) in THP-1 cells; format: cell-based; conditions: THP-1 cell; read-out: inhibition of TNF-α production IC50
Method: (§5) FIG. 4. Inhibition of TNF-α production in THP-1 and NIH/3T3 cells.
(§6) TNF-α activity assays. The protein expression levels of TNF-α were measured by using an enzyme-linked immunosorbent assay (ELISA) kit according to the manufacturer's instructions (Diaclone). Absorbance was read at 450 nm on a spectrophotometric ELISA plate reader (Anthos 2020, Version 2.0.5, Biochrom Ltd., UK). The percentage of TNF-α inhibition was calculated from the ratio between the observed TNF-α amount secreted by treated cells (nM) and the baseline secretion of TNF-α (nM). Dexamethasone (Sigma-Aldrich; 50-02-2), was used as positive control (0.01 μM). Results were normalized to the solvent control DMSO (0.1%).

TNF-α [4] = assay: TNF-α activity assay (ELISA) in NIH/3T3 cells; format: cell-based; conditions: NIH/3T3 cell; read-out: inhibition of TNF-α production IC50
Method: as §5, §6

NF-ηB [5] = assay: NF-ηB activity assay in THP-1 cells; format: cell-based; conditions: Homo sapiens; THP-1 cell; read-out: inhibition of NF-ηB production IC50
Method: (§7) FIG. 5. Inhibition of NF-ηB production in THP-1 and NIH/3T3 cells.
(§8) NF-ηB activity assays. The NIH/3T3-KBF-Luc cells has been stably transfected with the plasmid KBF-Luc plasmid, which contains three copies of NF-ηB binding site (from major histocompatibility complex promoter), fused to a minimal simian virus 40 promoter driving the luciferase gene. Cells (1×10^4 for NIH/3T3-KBF-Luc) are seeded the day before the assay on 96-well plate. Then the cells are treated with the test substances for 15 min and then stimulated with 30 ng/mL TNF-α. After 6 h, the cells are washed twice with PBS and lysed in 50 μL lysis buffer containing 25 mM Tris-phosphate (pH 7.8), 8 mM MgCl2, 1 mM DTT, 1% Triton X-100, and 7% glycerol during 15 min at RT in a horizontal shaker. Luciferase activity is measured using a GloMax 96 microplate luminometer (Promega) following the instructions of the luciferase assay kit (Promega, Madison, WI, USA). The RLU is calculated and the results are expressed as percentage of inhibition of NF-ηB activity induced by TNF-α (100% activation). The experiments for each concentration of the test items will be done in triplicate wells.

NF-ηB [6] = assay: NF-ηB activity assay (KBF-Luc luciferase reporter) in NIH/3T3 cells; format: cell-based; conditions: Mus musculus, NIH3T3; NIH/3T3 cell; read-out: inhibition of NF-ηB production IC50
Method: as §7, §8

STAT3 = STAT3 activity assay (HeLa-STAT3-Luc luciferase reporter, IFNγ-induced); format: cell-based; conditions: HeLa-STAT3-Luc cells, IFNγ 25 U/mL, 6 h; read-out: inhibition of IFNγ-induced STAT3 activation IC50
Method: FIG. 6. DOXA-1 and DOXA-2 inhibits IFNγ-induced STAT3 activation. HeLa-STAT3-Luc cells (15×10^3 cells/mL) were preincubated with increasing concentrations of the compound and treated with IFNγ (25 U/mL) for 6 h. Luciferase activity was measured in the cell lysates with the luciferase assay kit (Promega, USA) and using a GloMax 96 microplate luminometer
STAT3 activity assay. The HeLa-STAT3-luc cells have been stably transfected with the plasmid 4×M67 pTATA TK-Luc. Cells (15×10^3 cells/mL) are seeded 96-well plate the day before the assay. Then the cells are treated with the compound for 15 min and then stimulated with IFN-γ 25 IU/mL. After 6 h, the cells are washed twice with PBS and lysed in 50 μL lysis buffer containing 25 mM Tris-phosphate (pH 7.8), 8 mM MgCl2, 1 mM DTT, 1% Triton X-100, and 7% glycerol during 15 min at RT in a horizontal shaker. Luciferase activity was measured using GloMax 96 microplate luminometer (Promega) following the instructions of the luciferase assay kit (Promega, Madison, WI, USA). The RLU is calculated and the results are expressed as percentage of inhibition of STAT3 activity induced by IFN-γ (100% activation). The experiments for each concentration of the test items will be done in triplicate wells.

HIF-1α = HIF-1α activity assay (NIH/3T3-EPO-Luc luciferase reporter, DFX-induced); format: cell-based; conditions: 6 h, read-out: inhibition of DFX-induced activation of EPO-Luc (HIF-1α stabilization) IC50
Method: FIG. 7. Inhibitions the HIF-1α pathway. NIH/3T3-EPO-Luc cells (10×10^4 cells/mL) were preincubated with increasing concentrations of the compound or the hypoximimetic (Desferrioxamine) DFX for 6 h. Luciferase activity was measured in the cell lysates and results are represented as the percentage of inhibition considering 100% the value of DFX-induced HIF-1α pathway activation.
HIF-1α activity assay. The NIH/3T3-EPO-luc cells have been stably transfected with the plasmid Epo-Luc plasmid. The EPO-Hypoxia Response Element (HRE)-luciferase reporter plasmid contains three copies of the HRE consensus sequence from the promoter of the erythropoietin gene in the pGL3 vector. Cells (1×10^4 for NIH/3T3-EPO-luc) are seeded the day before the assay. The next day, the cells are stimulated either with the compound or Desferrioxamine (DFX) 150 μM as a positive control. After 6 hours of stimulation the cells are lysed in 25 mM Tris-phosphate pH 7.8, 8 mM MgCl2, 1 mM DTT, 1% Triton X-100, and 7% glycerol during 15 min at RT in a horizontal shaker. Luciferase activity is measured using a GloMax 96 microplate luminometer (Promega) following the instructions of the luciferase assay kit (Promega, Madison, WI, USA). The RLU is calculated and the results are expressed as percentage of inhibition induction/inhibition of EPO-luc activity. […]

tyrosinase = target: T1, tyrosinase (Mus musculus, UniProt P11344); assay: Tyrosinase activity assay in B16-F10 melanoma cells; format: cell-based; conditions: 72 h treatment, read-out: inhibition of melanin synthesis (tyrosinase activity assay) IC50
T1 construct: To measure the tyrosinase activity of the cells, the B16-F10 cells treated for 3 days; endogenous in cells; host or cells: B16-F10 melanoma cells
T1 sequence (P11344 19-533): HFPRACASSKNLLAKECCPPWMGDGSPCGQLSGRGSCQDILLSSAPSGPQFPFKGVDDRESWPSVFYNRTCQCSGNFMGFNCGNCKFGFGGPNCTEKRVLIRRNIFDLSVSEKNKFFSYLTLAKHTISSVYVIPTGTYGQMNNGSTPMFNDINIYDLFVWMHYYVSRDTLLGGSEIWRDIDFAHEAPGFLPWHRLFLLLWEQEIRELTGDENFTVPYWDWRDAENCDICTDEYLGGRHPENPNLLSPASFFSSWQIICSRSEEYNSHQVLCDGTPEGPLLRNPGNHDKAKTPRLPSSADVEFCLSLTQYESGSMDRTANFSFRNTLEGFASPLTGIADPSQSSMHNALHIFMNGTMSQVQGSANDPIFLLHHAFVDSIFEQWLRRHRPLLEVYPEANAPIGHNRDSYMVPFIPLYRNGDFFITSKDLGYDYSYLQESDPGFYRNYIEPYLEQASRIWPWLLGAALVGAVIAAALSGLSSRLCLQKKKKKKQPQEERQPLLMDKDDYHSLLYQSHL
Method: FIG. 8. Effect of DOXA-1 and DOXA-2 on tyrosinase activity in B16-F10 melanoma cells. Tyrosinase activity assessment was performed as described in Methods. Briefly, cells were treated with the doses indicated of test substances or Kojic Acid as a positive control for 72 h. To determine the tyrosinase activity cells were lysed and the protein extracts were incubated with L-DOPA (a precursor of melanin) at 37° C. during 2 h and the activity was measured at 485 nm. Results are represented as percentage relative to untreated cells (control).
Tyrosinase activity assay. To measure the tyrosinase activity of the cells, the B16-F10 cells treated for 3 days with several doses of the compound is lysed by incubation at 4° C. for 30 min in lysis buffer (20 mM sodium phosphate, pH 6.8, 1% Triton X-100, 1 mM PMSF, 1 mM EDTA) containing protease inhibitors cocktail. The lysates are centrifuged at 15,000× g for 10 min to obtain the supernatant as the source of tyrosinase. The reaction mixture contained 20 mM phosphate buffer, pH 6.8, 1.25 mM L-DOPA (Sigma-Aldrich). After incubation at 37° C. for 2 h, dopachrome formation is monitored by measuring absorbance at a wavelength of 475 nm in a microplatereader (TECAN). Kojic acid 2 mM is used as a positive control.

[7] = Total antioxidant activity assay (DPPH free radical, cell-free); format: biochemical; conditions: Trolox 200 μM as positive control
Method: FIG. 2. Antioxidant activity of compound. The percentage of antioxidant activity of each extract was assessed by DPPH free radical assay and compared to the standard Trolox (92.08% of antioxidant activity).
Total antioxidant activity assay. […] DPPH (1,1-Diphenyl-2-picrylhydrazine) is a purple coloured stable free radical that is reduced to the yellow-coloured diphenylpicrylhydrazine. In a volume of 1 mL of methanol the test samples are mixed with DPPH 0.125 mM. Trolox (200 μM) is included as a positive control. After 30 min of incubation at room temperature in the dark the absorbance measurements are read at 517 nm using Thermo Scientific Genesys 10 uv scanning spectrophotometer. Lower absorbance of the reaction mixtures indicated higher free radical-scavenging activity. DPPH radical-scavenging activity is calculated according to the following formula: % Antioxidant activity=[(AC−AS)/AC]×100
Where Ac (control) is the absorbance of the control reaction (DPPH) and As (sample) is the absorbance of DPPH and sample.

Structure (SMILES): CCCCCC1=NN(C(=O)CCOC(=O)CCC(=O)O)OC(CCCCC)C1 (stereo not drawn) [DOXA-1, Doxadiazine-1]
- cytotoxicity against THP-1 cell (THP-1 cells [1]): no cytotoxicity
- IC50 (THP-1 cells [2]): 8.15 nM
- IC50 (NIH/3T3 cells): 3330 nM
- IC50 (TNF-α [3]): 32.5 nM
- IC50 (TNF-α [4]): 17.4 nM
- IC50 (NF-ηB [5]): 63.6 nM
- IC50 (NF-ηB [6]): 67.7 nM
- IC50 (STAT3): 3.09 nM
- IC50 (HIF-1α): 12.4 nM
- IC50 (tyrosinase): 18 nM

Structure (SMILES): CCCCCC1=NN(C(=O)CCOC(C)=O)OC(CCCCC)C1 (stereo not drawn) [DOXA-2, Doxadiazine-2]
- cytotoxicity against THP-1 cell (THP-1 cells [1]): no cytotoxicity
- IC50 (THP-1 cells [2]): 3.44 nM
- IC50 (NIH/3T3 cells): 2.23 nM
- IC50 (TNF-α [3]): 3.47 nM
- IC50 (TNF-α [4]): 1.58 nM
- IC50 (NF-ηB [5]): 5.18 nM
- IC50 (NF-ηB [6]): 2.41 nM
- IC50 (STAT3): 0.14 nM
- IC50 (HIF-1α): 5.07 nM
- IC50 (tyrosinase): 8.64 nM

Structure (SMILES): Cc1c(C)c2c(c(C)c1O)CCC(C)(C(=O)O)O2 (stereo not drawn) [Trolox, reference compound]
- percentage of antioxidant activity (DPPH), standard [7]: 92.08%
